Assays:
type I NKT cell = conditions: description, no example; also in the absence of antigen-presenting cells; cited from earlier work
[1] = tested on: liver damage caused by alcohol consumption; conditions: description, no example; cited from earlier work
[2] = tested on: conventional MHC-restricted CD4+ T cells; conditions: description, no example; cited from earlier work
[3] = tested on: hepatic ischemia and reperfusion injury; conditions: cited from earlier work
[4] = tested on: type I NKT cells; sulfatide/CD1d-tetramer+ cells; conditions: after administration in vivo; cited from earlier work
[5] = tested on: chronic and relapsing experimental autoimmune encephalomyelitis (EAE); assay: chronic and relapsing EAE; type: in vivo, SJL mice
Experimental: Groups of SJL mice were orally gavaged with miltefosine (1 mg in 200 microliters of 10% DMSO/PBS) or control (DMSO/PBS), twice a week as indicated by arrows. Clinical severity of disease was monitored daily as paralysis in both groups of mice from scale 1 to 5 and shown.

[6] = tested on: chronic experimental autoimmune encephalomyelitis (EAE); assay: EAE, oral sulfatide; type: in vivo, B6 mice; conditions: oral 200 micrograms for 7 days, starting one day before disease induction
Excerpt: However as shown in FIG. 6 oral treatment with sulfatide though inhibits disease initially when given orally but not very efficient. Without being limited by any theory, it is contemplated that sulfatide is not very stable in the gut, which is consistent with the observed low efficiency. With reference to FIG. 6, groups of B6 mice were orally treated with sulfatide (200 micrograms in 200 microliters in PBS) for 7 days, starting one day before the disease induction. Clinical paralysis was monitored daily and scored from 1 to 5. […] Without being limited by any theory, the observed similarity of both groups in consistent with instability of sulfatide in the gut.

ConA-induced hepatitis [7] = conditions: description, no example; cited from earlier work
ConA-induced hepatitis [8] = assay: ConA-induced hepatitis; type: in vivo, BL/6 mice
Experimental: Groups of BL/6 mice were either administered with DMSO/PBS or miltefosine 12 hr before ConA administration and liver injury was determined by H&E staining of liver sections and liver enzymes, such as ALT in serum examined 24 hr later (FIG. 3A and FIG. 3B). Data shown are representative of 2 independent experiments.

[9] = tested on: type II NKT cell hybridoma, Hy19.3; assay: plate-bound CD1d assay: IL-2 from type II NKT cell hybridoma; type: cell-based; conditions: CD1d coated plates incubated with lipid 6 hr; 50,000 cells/well; IL-2 measured 16 hr later
Experimental: (§1) The CD1d protein coated 96-well plates were incubated with the indicated lipids for 6 hr, washed and a type II NKT cell Hy 19.3 was added (50,000 cells/well) and IL-2 measured 16 hr later in the supernatant. LSF, lysosulftatide; LPC, lysophosphatidylcholine.

liver mononuclear cells = assay: flow cytometry of liver mononuclear cells after oral treatment; type: in vivo, SJL/J mice; conditions: 1 mg orally before and during disease; day 59
Experimental: Groups of female SJL/J mice were administered orally with 1 mg of miltefosine as shown in the FIG. 2, before and during the course of disease. Mice were sacrificed on day 59.

[10] = tested on: alcoholic liver diseases (ALD); assay: alcoholic liver disease, chronic plus binge EtOh feeding; type: in vivo, C57BL/6 mice
Excerpt: Groups of C57BL/6 mice were fed liquid alcohol (EtOh) diet or isocaloric control (control) diet for 10 day either containing miltefosine (˜500 micrograms per day) or DMSO/PBS. On day 11, 9 hr after the binge (chronic plus binge feeding), accumulation and activation of type I NKT cells (alpha-GalCer/CD1d^−tetramer^+ cells) or neutrophils (Ly^−6 G^+ CD11b^+) were examined in liver. As shown in FIG. 4A and FIG. 4B, in comparison to the control diet group, type I NKT cells accumulate into liver in mice fed liquid chronic plus binge EtOh diet. Also as shown in FIG. 4C and FIG. 4D, type I NKT cells become activated (as examined by the expression of CD69 cell surface expression in alpha-GalCer/CD1d-tetrame^+ cells) accompanied by accumulation of neutrophils (Ly^−6 G^+ CD11b^+ cells) into liver. Accumulation of activated type I NKT cells and neutrophils leads to inflammatory cascade resulting in heaptocyte injury during ALD.

CD1d = target: T1, CD1d (Mus musculus, UniProt P11609); assay: plate-bound CD1d assay: binding to CD1d; conditions: concluded from plate-bound CD1d assay
T1 sequence (P11609 19-297 limits assumed): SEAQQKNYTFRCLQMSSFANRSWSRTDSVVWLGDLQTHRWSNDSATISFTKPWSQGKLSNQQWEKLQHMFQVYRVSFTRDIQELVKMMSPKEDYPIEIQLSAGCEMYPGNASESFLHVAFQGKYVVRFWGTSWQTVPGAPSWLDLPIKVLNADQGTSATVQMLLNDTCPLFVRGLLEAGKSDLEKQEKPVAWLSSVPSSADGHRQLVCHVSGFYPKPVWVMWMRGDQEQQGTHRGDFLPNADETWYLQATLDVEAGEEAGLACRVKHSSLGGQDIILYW
T1 sequence (P01887 21-119 partner): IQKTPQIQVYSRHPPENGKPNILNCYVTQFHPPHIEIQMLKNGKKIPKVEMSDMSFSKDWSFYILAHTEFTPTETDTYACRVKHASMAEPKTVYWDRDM
Experimental: as §1

type I NKT cells = assay: alpha-GalCer stimulation of splenocytes from orally treated mice; type: in vivo, B6 mice; conditions: 1 mg oral gavage daily for 7 days; splenocytes cultured 90 hrs; 10 ng/ml alpha-GalCer
Experimental: Naïve B6 mice were treated every day for 7 days with DMSO (Control) or Miltefosine 1 mg (dissolved in DMSO and diluted into PBS), using oral gavage. Splenocytes were cultured in vitro for 90 hrs in the presence or absence of alpha-GalCer. Stimulation (as stimulation Index) and expansion of type I NKT cells (as FACS staining with alpha-GalCer/CD1d^−tetramer^+ cells) at 10 ng/ml of alpha-GalCer concentration is shown in both FIG. 2A and FIG. 2B.

[11] = ~500 micrograms per day in EtOh diet 10 day, day 11, 9 hr after binge

CC1=C(/C=C/C(C)=C/C=C/C(C)=C/C(=O)O)C(C)(C)CCC1 [ATRA, all trans retinoic acid]
type I NKT cell effector function, including cytokine secretion (type I NKT cell): inhibits type I NKT cell effector function | liver damage following excess alcohol consumption [1]: significantly inhibits liver damage | activity of conventional MHC-restricted CD4+ T cells that recognize protein antigens [2]: does not directly inhibit

3′-sulfogalactosyl ceramide [sulfatide]
secretion of IFN-gamma by hepatic type I NKT cells ([3]; early phase of ischemia and reperfusion injury, vs untreated animals): significantly decreased | liver injury following ischemia/reperfusion ([3]; mice treated with sulfatide): significantly reduced | in vitro proliferation of type I NKT cells in response to alpha-GalCer [4]: suppress in vitro proliferation of type I NKT cells | percentage of sulfatide/CD1d-tetramer+ cells with intracytoplasmic IFN-gamma staining [4]: increase the percentage of sulfatide/CD1d-tetramer+ cells with intracytoplasmic IFN-gamma staining | chronic and relapsing EAE ([5]; SJL/J mice, route not stated): significant inhibition | liver damage following excess alcohol consumption [1]: almost complete protection from liver damage | duration of initial protection from clinical paralysis [6]: 4 to 5 days | protection against ConA-induced hepatitis (hepatocellular necrosis, serum ALT and AST) (ConA-induced hepatitis [7]): can protect against Concanavalin A (ConA)-induced hepatitis

CCCCCCCCCCCCCCCCOP(=O)([O-])OCC[N+](C)(C)C [miltefosine]
clinical severity of disease (paralysis, scale 1 to 5) ([5]; oral gavage 1 mg twice a week): can be treated with miltefosine | serum levels of ALT (ConA-induced hepatitis [8]; given 12 hours before ConA, 24 hours later): reduced serum levels of ALT | liver injury following Con A injection (ConA-induced hepatitis [8]; given 12 hr before ConA): significant inhibition of liver injury | necrosis, H&E staining of liver sections (ConA-induced hepatitis [8]; given 12 hr before ConA): decreased necrosis | stimulation of type II NKT cell hybridoma Hy19.3 (IL-2 in the supernatant) [9]: able to stimulate | other CD4+ and CD8αβ+ T cells in liver, control vs. treated (liver mononuclear cells): not different | regulatory CD8αα+ T cells in liver (liver mononuclear cells): significantly increased | liver injury ([10]; ~500 micrograms per day in EtOh diet): protection from liver injury | accumulation of type I NKT cells in liver [10, 11]: inhibited accumulation of type I NKT cells | levels of activated (CD69+) type I NKT cells in liver [10, 11]: reduced levels of activated (CD69^+) NKT cells | levels of neutrophils (Ly-6G+ CD11b+) in liver [10, 11]: reduced levels of neutrophils | binding to CD1d molecules (CD1d): can bind to CD1d molecules | type I NKT cells proliferation and expansion in the presence of alpha-GalCer (type I NKT cells): significant inhibition
